What was measured:
[1] = Hygroscopicity assay, standing 48 hours at 25° C., humidity 79%; assay type: physicochemical; details: 48 hours, 25° C., humidity 79%
Experimental: The hygroscopicity test of the compounds of the present disclosure after standing for 48 hours
1. The arid glass weighing bottle with a tap (external diameter is 50 mm, the height is 15 mm) was placed at 25° C.±1° C. suitably in a thermostatic drier (saturated ammonium sulfate solution was laid in the lower part, humidity was 79%) the day before the assay, precise weight was measured as (m1);
2. The above weighing bottle was covered with the compounds of the invention (about 1 g), and the thickness of the compounds were generally 1 mm, precise weight was measured as (m2);
3. The mouth of the weighing bottle was kept open and placed with the tap in the above conditions with constant temperature and humidity for 48 hours;
4. Put the tap back on the bottle, precise weight was measured as (m3)
The degree of hygroscopicity was defined as follows: […]
Deliquesce: turning into liquid by absorbing enough moisture.
High hygroscopicity: the percentage of hygroscopicity weight gain is not less than 15%.
Hygroscopicity: the percentage of hygroscopicity weight gain is less than 15%, but not less than 2%.
Sparing hygroscopicity: the percentage of hygroscopicity weight gain is less than 2%, but not less than 0.2%.
No hygroscopicity or almost no hygroscopicity: the percentage of hygroscopicity weight gain is less than 0.2%.

[2] = Pharmacokinetics assay in Beagle dogs; assay type: in vivo; details: intragastric, 5 mg/kg (as free acid), 5 mg/kg
Experimental: The pharmacokinetic behavior of the compounds of the present disclosure was studied and evaluated in Beagle dogs.
12 Healthy adult Beagles dogs, male, were purchased from Suzhou Xishan Drug Research and Development Colo., LTD. License number: SCXK (Suzhou) 2007-0005.
The test compound was diluted with 0.5% sodium carboxymethyl cellulose to 2.5 mg/mL (calculated as the free acid form) of suspension before use.
12 Healthy adult Beagles dogs, male, were divided into 4 groups. After an overnight fast, the dogs were administered intragastrically at a dose of 5.0 mg/kg (calculated as the free acid form), at a volume of 2 mL/kg.
Blood samples (1.2 mL) were taken from vein of forelegs at pre administration and at 0.25, 0.5, 1.0, 1.5, 2.0, 3.0, 5.0, 6.0, 8.0, 12.0, 14.0, 24.0 and 48.0 hours post administration, which were stored in heparinized tubes and centrifuged for 10 minutes at 3,500 rpm. The plasma samples were stored at −20° C. until analysis. The Beagles dogs were fed 2 hours after administration.
50 μL of Beagles dog plasma, obtained at various time points after administration, 20 μL of internal standard solution and 150 μL of methanol was added to result in protein precipitation. Then the mixture was mixed for 1 minute using a vortexer and centrifuged for 5 minutes at 11,000 rpm. 50 μL of the supernatant was analyzed by HPLC-UV.
The compartmental model of pharmacokinetics was fitted for the test compounds and the major pharmacokinetic parameters were calculated in which Cmax and tmax were the actually measured values.

human TPOR = molecular target: T1, human TPOR (Homo sapiens, UniProt P40238); assay: Proliferation effect on BAF3-TPOR cell (CCK-8); assay type: cell-based; details: rate relative to rhTPO positive control
T1 construct: host or cells: BaF3 (murine pro-B cells), stably transfected, G418-selected
T1 sequence (P40238 26-635): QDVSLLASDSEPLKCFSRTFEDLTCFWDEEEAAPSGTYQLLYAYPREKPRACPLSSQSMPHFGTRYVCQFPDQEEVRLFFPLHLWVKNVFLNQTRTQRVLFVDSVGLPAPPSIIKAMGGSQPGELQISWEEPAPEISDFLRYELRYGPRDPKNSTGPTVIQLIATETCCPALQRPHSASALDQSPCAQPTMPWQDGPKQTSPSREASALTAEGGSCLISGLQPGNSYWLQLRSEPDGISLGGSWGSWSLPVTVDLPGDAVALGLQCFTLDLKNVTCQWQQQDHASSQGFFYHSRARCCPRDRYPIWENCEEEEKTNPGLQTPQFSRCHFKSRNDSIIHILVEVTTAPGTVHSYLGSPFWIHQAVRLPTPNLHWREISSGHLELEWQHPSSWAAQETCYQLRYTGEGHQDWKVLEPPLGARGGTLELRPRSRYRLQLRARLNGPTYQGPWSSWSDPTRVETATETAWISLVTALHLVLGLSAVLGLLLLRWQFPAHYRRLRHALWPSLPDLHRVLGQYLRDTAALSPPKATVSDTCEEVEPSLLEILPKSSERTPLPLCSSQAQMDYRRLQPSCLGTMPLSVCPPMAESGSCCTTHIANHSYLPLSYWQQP
In short: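 BaF3 cells stably expressing dual-site-mutated human TPOR were washed free of IL-3 and plated at 100,000 cells/mL with test solutions of 0.001–30 μM, then incubated 24 h at 37 °C. After a further 24 h with CCK-8, OD450 was read. Proliferation = (S−B)/(P−B) against a rhTPO control, fitted for EC50.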

[3] = Pharmacokinetics assay in rats; assay type: in vivo, SD rats; details: SD rats, intragastric, 50 mg/Kg (as free acid); 50 mg/kg
In short: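 SD rats, half male and half female, dosed intragastrically with compound suspended at 5 mg/mL (as free acid) in 1% sodium carboxymethyl cellulose; fed 2 h post-dose. Plasma concentrations over time were measured by HPLC-UV. Parameters came from a compartmental fit, with Cmax and tmax as observed values.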

## CC1=NN(c2ccc3c(c2)CCCC3)C(=O)/C1=N\Nc1cccc(-c2ccc(C(=O)O)o2)c1O [Example 10]
[1]
  Percentage of weight gain: 15.7%
  hygroscopicity: High hygroscopicity (the percentage of hygroscopicity weight gain is not less than 15%)
[2]
  Area Under Curve AUC: 9.76 µg·h/mL
  Clearance CL/F: 10.1 mL/min/kg
  Half-Life t1/2: 8.07 h
  Plasma Conc. Cmax: 810 ng/mL
  Time to peak Tmax: 0.7 h
Human TPOR
  EC50: 16 nM
[3]
  Area Under Curve AUC: 381 ± 306 µg·h/mL
  Clearance CL/F: 8.23 ± 12.6 mL/min/kg
  Half-Life t½: 12.9 ± 6.32 h
  Plasma Conc. Cmax: 65600 ± 44500 ng/mL
  Time to peak Tmax: 1.63 ± 0.75 h

From patent US9120762B2, “Salts of bicyclo-substituted pyrazolon azo derivatives, preparation method and use thereof” (Jiangsu Hengrui Medicine Co., Ltd., priority 2009, dated 2015)
